Reference: patent US11612586B2, “Indole regulation of antigen presenting cells” (THE TEXAS A&M UNIVERSITY SYSTEM, priority 2016, dated 2023)

Key:
[1] = test system: aldh1a2; assay: aldh1a2 gene expression in BMDCs, real-time qPCR; assay type: cell-based, murine; details: day 7 BMDCs cultured with indole from day 3
Protocol: FIG. 13A: BMDCs were cultured from day 3 with indole (1 mM), retinoic acid (1 uM), or DMF control were assayed for aldehyde dehydrogenase (ALDH) activity using the Aldefluor commercial kit. The ALDH inhibitor, DEAB reagent, was included to control for background fluorescence. Aldefluor fluorescence as a measure of ALDH activity was analyzed by flow cytometry. Data is reported as percentage of Aldefluor positive DCs (left panel) and corresponding MFI values (right panel). Individual dots represent data from five independent experiments. FIG. 13B: Gene expression of aldh1a2 was assayed by real-time qPCR in day 7 BMDCs cultured with indole from day 3. Gene expression was normalized to 18 s ribosomal RNA. Mean of three independent experiments. *p<0.05 by Student's t test.
Total RNA was extracted from BMDCs using RNeasy Mini Kit (Qiagen) and then retro-transcribed using cDNA Superscript Mastermix (Quanta). Quantitative PCR reactions were carried out in triplicate using Perfecta SYBR Green Fast Mix, Low ROX (Quanta).
Gene expression levels for each individual sample were normalized to 18 s. Mean relative gene expression was determined and differences were calculated using the 2^−ΔC(t) method.

[2] = test system: Th17 cells; assay: Th17 differentiation in DC-T cell co-culture; assay type: cell-based, mouse; details: co-culture with DCs conditioned with indole, Th17-skewing cytokines present
Protocol: (§1) FIGS. 19A-19C graphically illustrate that indole-conditioned DCs inhibit Th1, Th2, and Th17 differentiation. Naïve CD4+CD25-T cells from OT-II TCR transgenic mice were isolated by column purification. Naïve T cells were then co-cultured with OVA323-339 peptide-loaded BMDCs for 72 hours in the presence or absence of lineage-skewing cytokines (described in methods). BMDCs were previously treated with indole, RA, or DMF from day 3. For the last 5 hours of culture, T cells were restimulated with PMA and ionomycin in the presence of Golgiplug, followed by intracellular staining. Cytokine production was determined to assess differentiation of Th1 (FIG. 19A), Th2 (FIG. 19B), and Th17 CD4+T (FIG. 19C) cells. Mean of three independent experiments. * indicates p<0.05 for one-way ANOVA followed by Dunnett's post-test.
(§2) In order to determine whether the indole-conditioned DC induction of Tregs was specific to this lineage, additional T cell fates were quieried. Activated CD4+T helper cells are typically divided into the subsets Th1, Th2, Th17, and Treg, based on their expression of transcription factors and pattern of cytokine secretion. The antigen-specific co-culture system was used to investigate these remaining traditional T cell lineages with the addition of an endpoint PMA/Ionomycin stimulation to induce cytokine secretion. […]

[3] = test system: Th2 cells; assay: Th2 differentiation in DC-T cell co-culture; assay type: cell-based, mouse; details: co-culture with DCs conditioned with indole
Protocol: as §1, §2

[4] = test system: Akt; assay: phospho-Akt signaling in BMDMs; assay type: cell-based, mouse
Protocol: (§3) The PI3K/Akt and MAPK/Erk signaling pathways regulate many cellular processes including survival, apoptosis, growth, and cytokine production. […] Specifically, BMDMs were treated with indole (1 mM) or DMF control for 18 hours, then stimulated with LPS (10 ug/ml) or CpG (5 uM) for 30 minutes. Cells were stained for phospho-Akt or phospho-Erk and analyzed by flow cytometry.
(§4) The inventors performed a series of assays where bone marrow derived macrophages (BMDMs), bone marrow derived dendritic cells (BMDCs), and splenic dendritic cells (splenic DCs), were exposed to a series of TDMMs, including indole, indole-3-acetate (I3AT), 5-hydroxyindole (5HI), and indole-3-pyruvate (I3P), as well as indole-3-carbinol (I3C; a plant derived compound) to be used for a positive control (1 mM for 24 hours). The BMDMs and BMDCs were stimulated with LPS for 4 hours and assayed at day 7 for expression of various pro-inflammatory cytokines. In a similar assay, the BMDMs and BMDCs were stimulated with LPS or CpG, respectively, for 15 minutes and assayed for pAKT and pERK signaling, which is a reflection of pro-inflammatory response.

[5] = test system: Erk; assay: phospho-Erk signaling in BMDMs; assay type: cell-based, mouse
Protocol: as §3, §4

[6] = test system: Erk; assay: pERK signaling in BMDCs; assay type: cell-based, mouse; details: 1 mM TDMM 24 hours, CpG (5 uM) 15 minutes
Protocol: as §4

[7] = test system: MHC-II and CD86; details: BMDC, indole from day 0, 3, or 6, LPS stimulation
Protocol: Upon encountering and engulfing antigen, DCs upregulate their expression of maturation markers including MHC-II and the co-stimulatory molecule, CD86.
All primary cells were cultured in RPMI 1640 supplemented with 2-mercaptoethanol, gentamicin, penicillin, streptomycin, and 10% FCS (all from Life Technologies). Bone marrow-derived dendritic cells were cultured as previously described (Inaba K, et al. (1992) Generation of large numbers of dendritic cells from mouse bone marrow cultures supplemented with granulocyte/macrophage colony-stimulating factor. The Journal of Experimental Medicine 176(6):1693-1702) with slight modifications. Briefly, bone marrow cells were harvested from murine femurs and cultured in complete media supplemented with 10% FCS, 20 ng/ml GM-CSF (Peprotech), and 10 ng/ml IL-4 (Peprotech). Media was replenished at day 2, 4, and 6 of the 7 day culture.

[8] = test system: TNF; assay: TNF production in BMDCs, intracellular staining, flow cytometry; assay type: cell-based, mouse
[9] = 1 mM TDMM 24 hours, LPS 1 ug/ml 15 minutes
[10] = indole 1 mM 18 hours, LPS (10 ug/ml) or CpG (5 uM) 30 minutes

c1ccc2[nH]ccc2c1 [Indole, indole]
aldh1a2 expression [1]: inhibits | Th17 differentiation, rate of T cells [2]: less than 0.5% | development of Th2 lineage [3]: stark inhibition | pAKT [4, 9]: ↓ | dampening of pAkt signaling [4, 10]: approximately 50% | pERK [5, 9]: ↓ | dampening of pErk signaling [5, 10]: approximately 50% | pERK [6]: ↓↓ | DC maturation (MHC-II and CD86 expression) [7]: did not alter DC maturation | reduction in TNF ([8]; BMDCs exposed to indole from day 3 of 7 day culture, LPS stimulation): 30% | inhibition of TNF production ([8]; BMDCs, indole for 18 hours followed by TLR stimulation): ~2 fold
